The values that follow come from patent US9758492B2, “IDO inhibitors” (Bristol-Myers Squibb Company, priority 2013, dated 2017).

What is called IC50 is the midpoint of a concentration-inhibition curve. A higher IC50 goes with lower potency.

Sequence of IDO (P14902 whole entry): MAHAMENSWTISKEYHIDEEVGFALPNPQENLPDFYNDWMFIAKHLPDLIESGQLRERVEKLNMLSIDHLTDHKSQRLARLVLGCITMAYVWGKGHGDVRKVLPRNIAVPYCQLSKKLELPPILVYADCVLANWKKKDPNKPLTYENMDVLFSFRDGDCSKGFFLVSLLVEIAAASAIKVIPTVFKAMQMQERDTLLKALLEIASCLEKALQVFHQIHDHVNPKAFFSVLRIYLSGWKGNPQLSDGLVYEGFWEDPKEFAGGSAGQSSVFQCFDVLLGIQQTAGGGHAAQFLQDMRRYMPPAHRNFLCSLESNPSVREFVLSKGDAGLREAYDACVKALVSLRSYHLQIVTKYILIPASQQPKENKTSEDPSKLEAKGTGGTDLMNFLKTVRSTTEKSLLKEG

The test concerns the target IDO (Homo sapiens, UniProt P14902). Kind of test: LLE_IDO_ABS_DR (IDO assay).
On to `[2H]C([2H])(C(C)C)N(c1ccc(-c2sccc2C(=O)O)cc1NC(=O)Nc1ccccc1F)C1CCCCC1` [Example 36, 2-(4-(Cyclohexyl(1,1-dideutero-2-methylpropyl)amino)-3-(3-(2-fluorophenyl)ureido)phenyl)thiophene-3-carboxylic acid], for which the IC50 turned out to be 0.0059 µM.
`Cc1ccc(NC(=O)Nc2cc(-c3ccccc3-c3nnn[nH]3)ccc2N(CCC(F)(F)F)CC2CC2)cc1` [Example 63, 1-(4-((cyclopropylmethyl) (3,3,3-trifluoropropyl)amino)-2′-(1H-tetrazol-5-yl)biphenyl-3-yl)-3-p-tolylurea] came in with an IC50 of 0.12 µM.
In the case of `Cc1ccc(NC(=O)Nc2cc(-c3ccccc3C(=O)O)ccc2N(CCC(F)(F)F)CC2CC2)cc1` [Example 64, 4′-((cyclopropylmethyl) (3,3,3-trifluoropropyl)amino)-3′-(3-p-tolylureido)biphenyl-2-carboxylic acid], the IC50 came out at 0.29 µM.
`COc1ccc(-c2ccc(N(CCC(F)(F)F)CC3CC3)c(NC(=O)Nc3ccc(C)cc3)c2)cc1C(=O)O` [Example 65, 4′-((cyclopropylmethyl) (3,3,3-trifluoropropyl)amino)-4-methoxy-3′-(3-p-tolylureido) biphenyl-3-carboxylic acid] returned an IC50 of 3.7 µM.
In turn, `Cc1ccc(NC(=O)Nc2cc(-c3ccccc3-c3nnn[nH]3)ccc2N(CC2CC2)CC2CC2)cc1` [Example 66, 1-(4-(bis(cyclopropyl-methyl)amino)-2′-(1H-tetrazol-5-yl)biphenyl-3-yl)-3-p-tolylurea] displayed an IC50 of 0.03 µM.
In turn, `Cc1ccc(NC(=O)Nc2cc(-c3ccccc3C(=O)O)ccc2N(CC2CC2)CC2CC2)cc1` [Example 67, 4′-(bis (cyclopropylmethyl)amino)-3′-(3-p-tolylureido)biphenyl-2-carboxylic acid] returned an IC50 of 0.35 µM.
`CC(C)CN(CC(C)C)c1ccc(-c2ccc(F)cc2C(=O)O)cc1NC(=O)Nc1ccccc1Cl` [Example 68, 3′-(3-(2-chlorophenyl)ureido)-4′-(diisobutylamino)-4-fluorobiphenyl-2-carboxylic acid]: half-maximal inhibition (IC50) was put at 0.56 µM. Compared with the last molecule, the IC50 is about 1.6-fold higher.
In the case of `Cc1ccccc1NC(=O)Nc1cc(-c2cccc(F)c2C(=O)O)ccc1N(CC(C)C)CC(C)C` [Example 69, 4′-(diisobutylamino)-3-fluoro-3′-(3-o-tolylureido)biphenyl-2-carboxylic acid], the midpoint of inhibition, the IC50, lay at 0.89 µM.
`Cc1ccc(NC(=O)Nc2cc(-c3ccc(F)cc3C(=O)O)ccc2N(CC(C)C)CC(C)C)cc1` [Example 70, 4′-(diisobutylamino)-4-fluoro-3′-(3-p-tolylureido)biphenyl-2-carboxylic acid] showed an IC50 of 0.11 µM.
Then `COc1ccc(-c2ccc(N(CC(C)C)CC(C)C)c(NC(=O)Nc3ccc(C)cc3)c2)c(NS(=O)(=O)C(F)(F)F)c1` [Example 71, N-(4′-(diisobutylamino)-4-methoxy-3′-(3-p-tolylureido)biphenyl-2-yl)-1,1,1-trifluoromethane-sulfonamide], with 1.74 µM; and `CCN(CCOC)c1ccc(-c2ccccc2C(=O)O)cc1NC(=O)Nc1ccc(C)cc1` [Example 72, 4′-(ethyl(2-methoxyethyl)amino)-3′-(3-p-tolylureido)biphenyl-2-carboxylic acid], with 0.85 µM.
In turn, `CCN(CCOC)c1ccc(-c2ccccc2-c2nnn[nH]2)cc1NC(=O)Nc1ccc(C)cc1` [Example 73, 1-(4-(ethyl(2-methoxyethyl)amino)-2′-(1H-tetrazol-5-yl)biphenyl-3-yl)-3-p-tolylurea] gave an IC50 of 0.15 µM.
`Cc1ccc(NC(=O)Nc2cc(-c3ccccc3NS(C)(=O)=O)ccc2N(CC(C)C)CC(C)C)cc1` [Example 74, N-(4′-(diisobutylamino)-3′-(3-p-tolylureido)biphenyl-2-yl) methanesulfonamide] registered an IC50 of 5.77 µM.
Then `CCN(c1ccc(-c2ccccc2-c2nnn[nH]2)cc1NC(=O)Nc1ccc(C)cc1)C1CCCC1` [Example 75, 1-(4-(cyclopentyl(ethyl)amino)-2′-(1H-tetrazol-5-yl)biphenyl-3-yl)-3-p-tolylurea], with 0.00324 µM.
Regarding `CCN(c1ccc(-c2ccccc2C(=O)O)cc1NC(=O)Nc1ccc(C)cc1)C1CCCC1` [Example 76, 4′-(cyclopentyl(ethyl)amino)-3′-(3-p-tolylureido)biphenyl-2-carboxylic acid], the IC50 turned out to be 0.02 µM.
`CCN(c1ccc(-c2ccc(OC)c(C(=O)O)c2)cc1NC(=O)Nc1ccc(C)cc1)C1CCCC1` [Example 77, 4′-(cyclopentyl(ethyl)amino)-4-methoxy-3′-(3-p-tolylureido) biphenyl-3-carboxylic acid] gave an IC50 of 3.26 µM. Compared with the last molecule, the IC50 is about 160-fold higher.
Regarding `COc1ccc(-c2ccc(N(C)C3CCCCCC3)c(NC(=O)Nc3ccc(C)cc3)c2)cc1C(=O)O` [Example 78, 4′-(cycloheptyl(methyl)amino)-4-methoxy-3′-(3-p-tolylureido)biphenyl-3-carboxylic acid], inhibition was half-maximal at 1.92 µM (IC50).
Consider `Cc1ccc(NC(=O)Nc2cc(-c3ccccc3-c3nnn[nH]3)ccc2N(C)C2CCCCCC2)cc1` [Example 79, 1-(4-(cycloheptyl(methyl)amino)-2′-(1H-tetrazol-5-yl)biphenyl-3-yl)-3-p-tolylurea], for which the IC50 worked out at 0.00181 µM.
The molecule `Cc1ccc(NC(=O)Nc2cc(-c3ccccc3C(=O)O)ccc2N(C)C2CCCCCC2)cc1` [Example 80, 4′-(cycloheptyl(methyl)amino)-3′-(3-p-tolylureido)biphenyl-2-carboxylic acid] gave an IC50 of 0.00875 µM.
On to `Cc1ccc(NC(=O)Nc2cc(-c3ccc(F)cc3NS(=O)(=O)C(F)(F)F)ccc2N(CC(C)C)CC(C)C)cc1` [Example 81, N-(4′-(diisobutylamino)-4-fluoro-3′-(3-p-tolylureido)biphenyl-2-yl)-1,1,1-trifluoromethane-sulfonamide], for which the IC50 came to 0.27 µM.
In the case of `Cc1ccc(NC(=O)Nc2cc(-c3ccccc3-c3nnn[nH]3)ccc2N(CC2CC2)C2CCCCC2)cc1` [Example 82, 1-(4-(cyclohexyl (cyclopropylmethyl)amino)-2′-(1H-tetrazol-5-yl)biphenyl-3-yl)-3-p-tolylurea], inhibition was half-maximal at 0.0038 µM (IC50).
For the molecule `Cc1ccc(NC(=O)Nc2cc(-c3ccccc3C(=O)O)ccc2N(CC2CC2)C2CCCCC2)cc1` [Example 83, 4′-(cyclohexyl (cyclopropylmethyl)amino)-3′-(3-p-tolylureido)biphenyl-2-carboxylic acid], the IC50 stood at 0.02 µM.
For `Cc1ccc(NC(=O)Nc2cc(-c3ccccc3NS(=O)(=O)CC(F)(F)F)ccc2N(CC(C)C)CC(C)C)cc1` [Example 84, N-(4′-(diisobutylamino)-3′-(3-p-tolylureido)biphenyl-2-yl)-2,2,2-trifluoroethane-sulfonamide], the IC50 came to 2.11 µM.
As to `CCCN(c1ccc(-c2ccccc2-c2nnn[nH]2)cc1NC(=O)Nc1ccc(C)cc1)C1CCCCC1` [Example 85, 1-(4-(cyclohexyl(propyl)amino)-2′-(1H-tetrazol-5-yl)biphenyl-3-yl)-3-p-tolylurea], the IC50 turned out to be 0.00165 µM.
The molecule `CCCN(c1ccc(-c2ccccc2C(=O)O)cc1NC(=O)Nc1ccc(C)cc1)C1CCCCC1` [Example 86, 4′-(cyclohexyl(propyl)amino)-3′-(3-p-tolylureido)biphenyl-2-carboxylic acid] displayed an IC50 of 0.00416 µM.
`CCCN(c1ccc(-c2cc(F)ccc2C(=O)O)cc1NC(=O)Nc1ccc(C)cc1)C1CCCCC1` [Example 87, 4′-(cyclohexyl (propyl)amino)-5-fluoro-3′-(3-p-tolylureido) biphenyl-2-carboxylic acid] returned an IC50 of 0.00368 µM.
`CCCCN(CCCC)c1ccc(-c2ccccc2-c2nnn[nH]2)cc1NC(=O)Nc1ccc(C)cc1` [Example 88, 1-(4-(dibutylamino)-2′-(1H-tetrazol-5-yl)biphenyl-3-yl)-3-p-tolylurea] gave an IC50 of 0.00982 µM.
As to `CCCCN(CCCC)c1ccc(-c2ccccc2C(=O)O)cc1NC(=O)Nc1ccc(C)cc1` [Example 89, 4′-(dibutylamino)-3′-(3-p-tolylureido) biphenyl-2-carboxylic acid], inhibition was half-maximal at 0.05 µM (IC50).
For `CCCCN(CCCC)c1ccc(-c2cc(F)ccc2C(=O)O)cc1NC(=O)Nc1ccc(C)cc1` [Example 90, 4′-(dibutylamino)-5-fluoro-3′-(3-p-tolylureido)biphenyl-2-carboxylic acid], the IC50 was 0.01 µM.
For the molecule `CCCCN(CCCC)c1ccc(-c2sccc2C(=O)O)cc1NC(=O)Nc1ccc(C)cc1` [Example 91, 2-(4-(dibutylamino)-3-(3-p-tolylureido)phenyl)thiophene-3-carboxylic acid], the IC50 was determined as 0.06 µM.
`Cc1ccc(NC(=O)Nc2cc(-c3ccccc3-c3nnn[nH]3)ccc2N(CC(C)C)CC2CC2)cc1` [Example 92, 1-(4-((cyclopropylmethyl) (isobutyl)amino)-2′-(1H-tetrazol-5-yl)biphenyl-3-yl)-3-p-tolylurea] gave an IC50 of 0.02 µM.
With `Cc1ccc(NC(=O)Nc2cc(-c3ccccc3C(=O)O)ccc2N(CC(C)C)CC2CC2)cc1` [Example 93, 4′-((cyclopropylmethyl) (isobutyl)amino)-3′-(3-p-tolylureido) biphenyl-2-carboxylic acid], the IC50 is 0.08 µM. This IC50 is about 4-fold higher than that of the molecule before.
In the case of `Cc1ccc(NC(=O)Nc2cc(-c3ccccc3C(=O)C(C#N)S(C)(=O)=O)ccc2N(CC(C)C)CC(C)C)cc1` (stereo not drawn) [Example 96, 1-(2′-(2-cyano-2-(methylsulfonyl)acetyl)-4-(diisobutylamino)biphenyl-3-yl)-3-p-tolylurea], the IC50 was 1.18 µM.
Take `Cc1ccc(NC(=O)Nc2cc(-c3cccc(C(=O)O)c3)ccc2N(CC(C)C)CC2CCC2)cc1` [Example 97, 4′-((cyclobutylmethyl) (isobutyl)amino)-3′-(3-p-tolylureido)biphenyl-3-carboxylic acid]: the IC50 amounted to 4.64 µM.
Molecule `Cc1ccc(NC(=O)Nc2cc(-c3ccccc3-c3nnn[nH]3)ccc2N(CC(C)C)CC2CCC2)cc1` [Example 98, 1-(4-((cyclobutylmethyl) (isobutyl)amino)-2′-(1H-tetrazol-5-yl)biphenyl-3-yl)-3-p-tolylurea] had an IC50 of 0.03 µM.
In turn, `Cc1ccc(NC(=O)Nc2cc(-c3cc(F)ccc3C(=O)O)ccc2N(CC(C)C)CC2CCC2)cc1` [Example 99, 4′-((cyclobutylmethyl) (isobutyl)amino)-5-fluoro-3′-(3-p-tolylureido)biphenyl-2-carboxylic acid] returned an IC50 of 0.09 µM.
